IC50 data for 20 compounds are collected here from patent publication US9273058B2 (BRISTOL-MYERS SQUIBB COMPANY, priority 2013, dated 2016).

The target in one assay is CK1ε (Homo sapiens, UniProt P49674). Put plainly: CK1ε kinase assay (Caliper LabChip electrophoretic separation of fluoresceinated peptide substrate and product). The note with it: 200 pM CK1ε, 50 μM ATP, 1.5 μM peptide, 22 hours at room temperature. The assay is classed as biochemical. In outline: (§1)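 Kinase reactions ran 22 h at room temperature, were stopped with EDTA, and phosphorylated product was separated electrophoretically from unphosphorylated fluoresceinated peptide. Compounds were tested at eleven concentrations from 10 mM DMSO stocks. IC50 by non-linear regression.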
Chain of CK1ε (P49674 whole entry): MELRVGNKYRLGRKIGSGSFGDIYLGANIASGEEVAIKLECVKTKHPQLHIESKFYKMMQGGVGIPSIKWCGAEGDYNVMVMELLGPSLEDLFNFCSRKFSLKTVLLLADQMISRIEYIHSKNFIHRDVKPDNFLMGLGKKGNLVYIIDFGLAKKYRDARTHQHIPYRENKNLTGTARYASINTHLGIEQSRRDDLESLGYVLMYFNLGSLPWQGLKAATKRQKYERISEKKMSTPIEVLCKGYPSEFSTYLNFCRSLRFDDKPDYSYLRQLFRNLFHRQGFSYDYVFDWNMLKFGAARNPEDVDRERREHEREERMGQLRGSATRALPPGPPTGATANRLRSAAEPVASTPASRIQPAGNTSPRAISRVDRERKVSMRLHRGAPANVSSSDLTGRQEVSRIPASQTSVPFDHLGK

In another assay the target is CK1δ (Homo sapiens, UniProt P48730). The assay can be described thus: CK1δ kinase assay (Caliper LabChip electrophoretic separation of fluoresceinated peptide substrate and product). It is filed as biochemical. As to conditions: 200 pM CK1δ, 50 μM ATP, 1.5 μM peptide, 22 hours at room temperature. The method in brief: as §1
Chain of CK1δ (P48730 whole entry): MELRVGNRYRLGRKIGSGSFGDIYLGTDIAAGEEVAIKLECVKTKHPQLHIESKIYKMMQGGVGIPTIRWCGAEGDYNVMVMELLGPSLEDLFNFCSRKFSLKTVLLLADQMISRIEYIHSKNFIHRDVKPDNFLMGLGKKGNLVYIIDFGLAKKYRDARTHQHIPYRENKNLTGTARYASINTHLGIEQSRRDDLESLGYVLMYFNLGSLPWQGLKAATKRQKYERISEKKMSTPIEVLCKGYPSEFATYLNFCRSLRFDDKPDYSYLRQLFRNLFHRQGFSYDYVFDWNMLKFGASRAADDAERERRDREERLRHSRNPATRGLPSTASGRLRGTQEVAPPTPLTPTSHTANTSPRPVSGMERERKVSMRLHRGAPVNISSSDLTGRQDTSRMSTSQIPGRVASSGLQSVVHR

Read-outs that look alike come from different tables or passages of the source.

With `NC(=O)c1c(-c2ccc(Cl)c(Cl)c2)nn2c1CN(C(=O)NC1(C(F)F)CCC1)CC2` [Compound 237, 2-(3,4-Dichlorophenyl)-N^5-(1-(difluoromethyl)cyclobutyl)-6,7-dihydropyrazolo[1,5-a] pyrazine-3,5(4H)-dicarboxamide], the IC50 at CK1ε (read-out: CK1ε IC50 range) and at CK1δ (read-out: CK1δ IC50 range) was 0.01 to 10 nM in each case.

With `CC1(NC(=O)N2Cc3c(C(N)=O)c(-c4ccc(Cl)c(Cl)c4)nn3C(CF)C2)CC(F)(F)C1` (centres unmarked) [Compound A28, 2-(3,4-Dichlorophenyl)-N^5-(3,3-difluoro-1-methylcyclobutyl)-7-(fluoromethyl)-6,7-dihydropyrazolo[1,5-a]pyrazine-3,5(4H)-dicarboxamide], the IC50 on CK1ε (read-out: CK1ε IC50 range) and at CK1δ (read-out: CK1δ IC50 range) was 0.01 to 10 nM throughout.

For `NC(=O)c1c(-c2cccc(Cl)c2)nn2c1CN(C(=O)NC1CC3(C1)CC(F)(F)C3)CC2` [Compound 182, 2-(3-Chlorophenyl)-N^5-(6,6-difluorospiro[3.3]heptan-2-yl)-6,7-dihydropyrazolo[1,5-a] pyrazine-3,5(4H)-dicarboxamide], the IC50 at CK1ε (read-out: CK1ε IC50 range) and at CK1δ (read-out: CK1δ IC50 range) was 0.01 to 10 nM throughout.

Take `CC1(NC(=O)N2CCn3nc(-c4ccc(F)c(Cl)c4)c(C(N)=O)c3C2)CC(O)C1` (centres unmarked) [Compound 260, 2-(3-Chloro-4-fluorophenyl)-N^5-(3-hydroxy-1-methylcyclobutyl)-6,7-dihydropyrazolo[1,5-a]pyrazine-3,5(4H)-dicarboxamide]: the IC50 on CK1ε (read-out: CK1ε IC50 range) and at CK1δ (read-out: CK1δ IC50 range) was 0.01 to 10 nM throughout.

Take `CC(C)(C)NC(=O)N1CCn2nc(-c3ccccc3)c(C(N)=O)c2C1` [Compound 116, N^5-(tert-Butyl)-2-phenyl-6,7-dihydropyrazolo[1,5-a] pyrazine-3,5(4H)-dicarboxamide]: the IC50 is 79.8 nM on CK1ε (read-out: CK1ε), 10 to 100 nM at CK1ε (read-out: CK1ε IC50 range), 18.2 nM on CK1δ (read-out: CK1δ) and 10 to 100 nM at CK1δ (read-out: CK1δ IC50 range).

With `NC(=O)c1c(-c2ccc(F)c(Cl)c2)nn2c1CN(C(=O)NC1CN(CC(F)(F)F)C1)CC2` [Compound 339, 2-(3-Chloro-4-fluorophenyl)-N^5-(1-(2,2,2-trifluoroethyl)azetidin-3-yl)-6,7-dihydropyrazolo[1,5-a]pyrazine-3,5(4H)-dicarboxamide], the IC50 on CK1ε (read-out: CK1ε IC50 range) and on CK1δ (read-out: CK1δ IC50 range) was 0.01 to 10 nM each time.

For the compound `CC(C)(NC(=O)N1CCn2nc(-c3ccc(Cl)c(Cl)c3)c(C(N)=O)c2C1)C(F)F` [Compound 199, 2-(3,4-Dichlorophenyl)-N^5-(1,1-difluoro-2-methylpropan-2-yl)-6,7-dihydropyrazolo[1,5-a]pyrazine-3,5(4H)-dicarboxamide], the IC50 on CK1ε (read-out: CK1ε IC50 range) and on CK1δ (read-out: CK1δ IC50 range) was 0.01 to 10 nM in each case.

In the case of `CC(C)(C)NC(=O)N1CCn2nc(-c3ccsc3)c(C(N)=O)c2C1` [Compound 121, N^5-(tert-Butyl)-2-(thiophen-3-yl)-6,7-dihydropyrazolo[1,5-a]pyrazine-3,5(4H)-dicarboxamide], the IC50 on CK1ε (read-out: CK1ε IC50 range) lay in the range of 100 to 2000 nM; at CK1δ (read-out: CK1δ IC50 range), 10 to 100 nM.

Consider `CC1(NC(=O)N2CCn3nc(-c4cccc(Cl)c4)c(C(N)=O)c3C2)CC(F)(F)C1` [Compound 299, 2-(3-Chlorophenyl)-N^5-(3,3-difluoro-1-methylcyclobutyl)-6,7-dihydropyrazolo[1,5-a] pyrazine-3,5(4H)-dicarboxamide], for which the IC50 on CK1ε (read-out: CK1ε IC50 range) and at CK1δ (read-out: CK1δ IC50 range) was 0.01 to 10 nM throughout.

`Cn1cc(-c2nn3c(c2C(N)=O)CN(C(=O)NC(C)(C)C)CC3)cn1` [Compound 153, N^5-(tert-Butyl)-2-(1-methyl-1H-pyrazol-4-yl)-6,7-dihydropyrazolo[1,5-a] pyrazine-3,5(4H)-dicarboxamide]: the IC50 on CK1ε (read-out: CK1ε IC50 range) and at CK1δ (read-out: CK1δ IC50 range) was 100 to 2000 nM each time.

For `CC(C)(C)NC(=O)N1CCn2nc(-c3ccncc3)c(C(N)=O)c2C1` [Compound 126, N^5-(tert-Butyl)-2-(pyridin-4-yl)-6,7-dihydropyrazolo[1,5-a]pyrazine-3,5(4H)-dicarboxamide], the IC50 was 844 nM at CK1ε (read-out: CK1ε), 100 to 2000 nM at CK1ε (read-out: CK1ε IC50 range), 442 nM at CK1δ (read-out: CK1δ) and 100 to 2000 nM on CK1δ (read-out: CK1δ IC50 range).

Consider `NC(=O)c1c(-c2ccc(Cl)c(Cl)c2)nn2c1CN(C(=O)NC1(c3cccnc3)CC(F)(F)C1)CC2` [Compound 313, 2-(3,4-Dichlorophenyl)-N^5-(3,3-difluoro-1-(pyridin-3-yl)cyclobutyl)-6,7-dihydropyrazolo[1,5-a]pyrazine-3,5(4H)-dicarboxamide], for which the IC50 at CK1ε (read-out: CK1ε IC50 range) and on CK1δ (read-out: CK1δ IC50 range) was 0.01 to 10 nM in each case.

Regarding `CC(C)NC(=O)N1CCn2nc(-c3cccc(F)c3)c(C(N)=O)c2C1` [Compound 5, 2-(3-Fluorophenyl)-N^5-isopropyl-6,7-dihydropyrazolo[1,5-a]pyrazine-3,5(4H)-dicarboxamide], the IC50 at CK1ε (read-out: CK1ε IC50 range) and on CK1δ (read-out: CK1δ IC50 range) was 10 to 100 nM each time.

Regarding `CC(C)(C)NC(=O)N1Cc2c(C(N)=O)c(-c3ccc(F)c(Cl)c3)nn2C2(C1)CC(F)(F)C2` [Compound A39, N^5′-(tert-Butyl)-2′-(3-chloro-4-fluorophenyl)-3,3-difluoro-4′H-spiro[cyclobutane-1,7′-pyrazolo[1,5-a]pyrazine]-3′,5′(6′H)-dicarboxamide], the IC50 on CK1ε (read-out: CK1ε IC50 range) and on CK1δ (read-out: CK1δ IC50 range) was 0.01 to 10 nM each time.

Consider `NC(=O)c1c(-c2cccc(Cl)c2)nn2c1CN(C(=O)Nc1ccc(C(F)(F)F)cc1)CC2` [Compound 168, 2-(3-Chlorophenyl)-N^5-(4-(trifluoromethyl)phenyl)-6,7-dihydropyrazolo[1,5-a]pyrazine-3,5(4H)-dicarboxamide], for which the IC50 at CK1ε (read-out: CK1ε IC50 range) and on CK1δ (read-out: CK1δ IC50 range) was 0.01 to 10 nM throughout.

On to `NC(=O)c1c(-c2cccc(Cl)c2)nn2c1CN(C(=O)NC1CC(COC(F)F)C1)CC2` (single isomer, unassigned) [Compound 244, 2-(3-Chlorophenyl)-N^5-(3-((difluoromethoxy)methyl)cyclobutyl)-6,7-dihydropyrazolo[1,5-a]pyrazine-3,5(4H)-dicarboxamide], for which the IC50 on CK1ε (read-out: CK1ε IC50 range) and on CK1δ (read-out: CK1δ IC50 range) was 0.01 to 10 nM throughout.

`COCCC1CN(C(=O)NC(C)(C)C)Cc2c(C(N)=O)c(-c3ccc(F)c(Cl)c3)nn21` (single isomer, unassigned) [Compound A101, N^5-(tert-Butyl)-2-(3-chloro-4-fluorophenyl)-7-(2-methoxyethyl)-6,7-dihydropyrazolo[1,5-a]pyrazine-3,5(4H)-dicarboxamide]: the IC50 on CK1ε (read-out: CK1ε IC50 range) and at CK1δ (read-out: CK1δ IC50 range) was 0.01 to 10 nM each time.

With `NC(=O)c1c(-c2ccc(Cl)c(Cl)c2)nn2c1CN(C(=O)NC1CC(F)(F)C1)CC2` [Compound 294, 2-(3,4-Dichlorophenyl)-N^5-(3,3-difluorocyclobutyl)-6,7-dihydropyrazolo[1,5-a] pyrazine-3,5(4H)-dicarboxamide], the IC50 on CK1ε (read-out: CK1ε IC50 range) and at CK1δ (read-out: CK1δ IC50 range) was 0.01 to 10 nM each time.

`N#Cc1ccc(NC(=O)N2CCn3nc(-c4cccc(Cl)c4)c(C(N)=O)c3C2)cc1C(F)(F)F` [Compound 159, 2-(3-Chlorophenyl)-N^5-(4-cyano-3-(trifluoromethyl)phenyl)-6,7-dihydropyrazolo [1,5-a]pyrazine-3,5(4H)-dicarboxamide]: the IC50 at CK1ε (read-out: CK1ε IC50 range) and at CK1δ (read-out: CK1δ IC50 range) was 0.01 to 10 nM in each case.

Take `CC(C)C1CN(C(=O)NC(C)(C)C)Cc2c(C(N)=O)c(-c3ccc(F)c(Cl)c3)nn21` (single isomer, unassigned) [Compound A119, N^5-(tert-Butyl)-2-(3-chloro-4-fluorophenyl)-7-isopropyl-6,7-dihydropyrazolo[1,5-a]pyrazine-3,5(4H)-dicarboxamide]: the IC50 on CK1ε (read-out: CK1ε IC50 range) and at CK1δ (read-out: CK1δ IC50 range) was 10 to 100 nM in each case.
